Data taken from patent publication US20240239772A1, “PROTEASE INHIBITORS AND METHODS OF USE” (The Cleveland Clinic Foundation, priority 2021, published 2024).

Each compound was assayed against SARS-CoV-2 3CLpro (Severe acute respiratory syndrome coronavirus 2 (2019-nCoV) (SARS-CoV-2), UniProt P0DTD1) (assay: biochemical). Conditions: read-out: SARS-CoV-2 IC50.
Type: biochemical

Row | Compound | IC50 [nM]
1 | CC(=O)NCc1ccc(N(Cc2cc(F)cc(F)c2)C(=O)Cn2nnc3ccccc32)cc1 [Compound 123, N-[4-(acetamidomethyl)phenyl]-2-(benzotriazol-1-yl)-N-[(3,5-difluorophenyl)methyl]acetamide] | 780
2 | O=C(Cn1nnc2ccccc21)N(Cc1cccc(Cl)c1F)c1ccc(-c2c[nH]cn2)cc1 [Compound 84, 2-(benzotriazol-1-yl)-N-[(3-chloro-2-fluoro-phenyl)methyl]-N-[4-(1H-imidazol-4-yl)phenyl]acetamide] | 230
3 | COc1cc(Cl)cc(CN(C(=O)Cn2nnc3ccccc32)c2ccc(-c3c[nH]cn3)cc2)c1 [Compound 87, 2-(benzotriazol-1-yl)-N-[(3-chloro-5-methoxy-phenyl)methyl]-N-[4-(1H-imidazol-4-yl)phenyl]acetamide] | 57
4 | CC(c1cc(F)cc(F)c1)N(C(=O)Cn1nnc2ccccc21)c1ccc(-c2c[nH]cn2)cc1 (stereo not shown) [Compound 88, 2-(benzotriazol-1-yl)-N-[1-(3,5-difluorophenyl)ethyl]-N-[4-(1H-imidazol-4-yl)phenyl]acetamide] | 160
5 | O=C(Cn1nnc2ccccc21)N(Cc1cncc(Cl)c1)c1ccc(-c2cccnc2)cc1 [Compound 34, 2-(Benzotriazol-1-yl)-N-[(5-chloro-3-pyridyl)methyl]-N-[4-(3-pyridyl)phenyl]acetamide] | 540 ± 70
6 | O=C(Cn1nnc2ccccc21)N(Cc1ccc(Cl)c(F)c1)c1ccc(-c2c[nH]cn2)cc1 [Compound 116, 2-(benzotriazol-1-yl)-N-[(4-chloro-3-fluoro-phenyl)methyl]-N-[4-(1H-imidazol-4-yl)phenyl]acetamide] | 2500
7 | COc1ccc(CN(C(=O)Cn2nnc3ccccc32)c2ccc(-c3c[nH]cn3)cc2)cc1F [Compound 117, 2-(benzotriazol-1-yl)-N-[(3-fluoro-4-methoxy-phenyl)methyl]-N-[4-(1H-imidazol-4-yl)phenyl]acetamide] | 970
8 | NCCc1ccc(N(Cc2cc(F)cc(F)c2)C(=O)Cn2nnc3ccccc32)cc1 [Compound 107, N-[4-(2-aminoethyl)phenyl]-2-(benzotriazol-1-yl)-N-[(3,5-difluorophenyl)methyl]acetamide] | 430
9 | O=C(Cn1nnc2ccccc21)N(Cc1cc(Cl)cc(Cl)c1)c1ccc(-c2cccnc2)cc1 [Compound 32, 2-(Benzotriazol-1-yl)-N-[(3,5-dichlorophenyl)methyl]-N-[4-(3-pyridyl)phenyl]acetamide] | 176 ± 25
10 | O=C(Cn1nnc2ccccc21)N(Cc1cncc(C(F)(F)F)c1)c1ccc(-c2c[nH]cn2)cc1 [Compound 96, 2-(benzotriazol-1-yl)-N-[4-(1H-imidazol-4-yl)phenyl]-N-[[5-(trifluoromethyl)-3-pyridyl]methyl]acetamide] | 350
11 | O=C1CC(c2ccc(N(Cc3cc(F)cc(F)c3)C(=O)Cn3nnc4ccccc43)cc2)CN1 (stereo not shown) [Compound 115, 2-(benzotriazol-1-yl)-N-[(3,5-difluorophenyl)methyl]-N-[4-(5-oxopyrrolidin-3-yl)phenyl]acetamide] | 240
12 | O=C(Cn1nnc2ccccc21)N(Cc1cccc(F)c1)c1ccc(-c2c[nH]cn2)cc1 [Compound 82, 2-(benzotriazol-1-yl)-N-[(3-fluorophenyl)methyl]-N-[4-(1H-imidazol-4-yl)phenyl]acetamide] | 360
13 | O=C(Cn1nnc2ccccc21)N(Cc1ccsc1)c1ccc(-c2ccc[nH]c2=O)cc1 [Compound 17, 2-(1H-Benzo[d][1,2,3]triazol-1-yl)-N-(4-(2-oxo-1,2-dihydropyridin-3-yl)phenyl)-N-(thiophen-3-ylmethyl)acetamide] | 920 ± 210
14 | CC(C)(C)CN(C(=O)Cn1nnc2ccccc21)c1ccc(-c2c[nH]cn2)cc1 [Compound 114, 2-(benzotriazol-1-yl)-N-(2,2-dimethylpropyl)-N-[4-(1H-imidazol-4-yl)phenyl]acetamide] | 1600
15 | N#Cc1cccc(CN(C(=O)Cn2nnc3ccccc32)c2ccc(-c3c[nH]cn3)cc2)c1 [Compound 77, 2-(benzotriazol-1-yl)-N-[(3-cyanophenyl)methyl]-N-[4-(1H-imidazol-4-yl)phenyl]acetamide] | 640
16 | O=C(Cn1nnc2ccccc21)N(Cc1cncc(Cl)c1)c1ccc(-c2c[nH]cn2)cc1 [Compound 85, 2-(benzotriazol-1-yl)-N-[(5-chloro-3-pyridyl)methyl]-N-[4-(1H-imidazol-4-yl)phenyl]acetamide] | 89
17 | O=C(Cn1nnc2ccccc21)N(Cc1cc(F)cc(OC(F)(F)F)c1)c1ccc(-c2c[nH]cn2)cc1 [Compound 120, 2-(benzotriazol-1-yl)-N-[[3-fluoro-5-(trifluoromethoxy)phenyl]methyl]-N-[4-(1H-imidazol-4-yl)phenyl]acetamide] | 120
18 | Cc1ccc(CN(C(=O)Cn2nnc3ccccc32)c2ccc(-c3cccnc3)cc2)cc1Cl [Compound 71, 2-(1H-benzo[d][1,2,3]triazol-1-yl)-N-(3-chloro-4-methylbenzyl)-N-(4-(pyridin-3-yl)phenyl)acetamide] | > 50000
19 | O=C(Cn1nnc2ccccc21)N(Cc1cccc(F)c1F)c1ccc(-c2c[nH]cn2)cc1 [Compound 81, 2-(benzotriazol-1-yl)-N-[(2,3-difluorophenyl)methyl]-N-[4-(1H-imidazol-4-yl)phenyl]acetamide] | 400

Row | Compound | IC50 [nM]
20 | O=C(Cn1nnc2ccccc21)N(Cc1c(F)cccc1F)c1ccc(-c2c[nH]cn2)cc1 [Compound 98, 2-(benzotriazol-1-yl)-N-[(2,6-difluorophenyl)methyl]-N-[4-(1H-imidazol-4-yl)phenyl]acetamide] | 980
21 | O=C(O)Cc1ccc(N(Cc2cc(F)cc(F)c2)C(=O)Cn2nnc3ccccc32)cc1 [Compound 93, 2-[4-[[2-(benzotriazol-1-yl)acetyl]-[(3,5-difluorophenyl)methyl]amino]phenyl]acetic acid] | 23000
22 | O=C(Cn1nnc2ccccc21)N(CC1COC1)c1ccc(-c2cccnc2)cc1 [Compound 70, 2-(1H-benzo[d][1,2,3]triazol-1-yl)-N-(oxetan-3-ylmethyl)-N-(4-(pyridin-3-yl)phenyl)acetamide] | 32000
23 | O=C(Cn1nnc2ccccc21)N(Cc1cc(F)cc(F)c1)c1ccc(C2CCNC2)cc1 (stereo not shown) [Compound 108, 2-(benzotriazol-1-yl)-N-[(3,5-difluorophenyl)methyl]-N-(4-pyrrolidin-3-ylphenyl)acetamide] | 210
24 | O=C(Cn1nnc2ccccc21)N(Cc1cc(F)ccc1F)c1ccc(-c2c[nH]cn2)cc1 [Compound 80, 2-(benzotriazol-1-yl)-N-[(2,5-difluorophenyl)methyl]-N-[4-(1H-imidazol-4-yl)phenyl]acetamide] | 220
25 | Cn1cnc(-c2ccc(N(Cc3ccsc3)C(=O)Cn3nnc4ccccc43)cc2)c1 [Compound 20, 2-(Benzotriazol-1-yl)-N-[4-(1-methylimidazol-4-yl)phenyl]-N-(3-thienylmethyl)acetamide] | 9550 ± 990
26 | O=C(Cn1nnc2ccccc21)N(Cc1ccc(F)c(Cl)c1)c1ccc(-c2cccnc2)cc1 [Compound 29, 2-(Benzotriazol-1-yl)-N-[(3-chloro-4-fluoro-phenyl)methyl]-N-[4-(3-pyridyl)phenyl]acetamide] | 8530 ± 1820
27 | O=C(Cn1nnc2ccccc21)N(CC1CCCC1)c1ccc(-c2ccc[nH]c2=O)cc1 [Compound 68, 2-(1H-benzo[d][1,2,3]triazol-1-yl)-N-(cyclopentylmethyl)-N-(4-(2-oxo-1,2-dihydropyridin-3-yl)phenyl)acetamide] | 1300
28 | O=C(Cn1nnc2ccccc21)N(Cc1cc(F)cc(Cl)c1)c1ccc(-c2c[nH]cn2)cn1 [Compound 75, 2-(benzotriazol-1-yl)-N-[(3-chloro-5-fluoro-phenyl)methyl]-N-[5-(1H-imidazol-4-yl)-2-pyridyl]acetamide] | 62
29 | COC(=O)Cc1ccc(N(Cc2cc(F)cc(F)c2)C(=O)Cn2nnc3ccccc32)cc1 [Compound 92, methyl 2-[4-[[2-(benzotriazol-1-yl)acetyl]-[(3,5-difluorophenyl)methyl]amino]phenyl]acetate] | 1800
30 | CC(C)CN(C(=O)Cn1nnc2ccccc21)c1ccc(-c2c[nH]cn2)cc1 [Compound 89, 2-(benzotriazol-1-yl)-N-[4-(1H-imidazol-4-yl)phenyl]-N-isobutyl-acetamide] | 680
31 | O=C(Cn1nnc2ccccc21)N(Cc1cc(F)cc(F)c1)c1ccc(-c2c[nH]cn2)cc1 [Compound 78, 2-(benzotriazol-1-yl)-N-[(3,5-difluorophenyl)methyl]-N-[4-(1H-imidazol-4-yl)phenyl]acetamide] | 95
32 | O=C(Cn1ccnn1)N(Cc1cc(F)cc(Cl)c1)c1ccc(-c2c[nH]cn2)cc1 [Compound 112, N-[(3-chloro-5-fluoro-phenyl)methyl]-N-[4-(1H-imidazol-4-yl)phenyl]-2-(triazol-1-yl)acetamide] | 410
33 | O=C(Cn1nnc2ccccc21)N(Cc1cc(F)cc(F)c1)c1ccc(-c2nnc[nH]2)cc1 [Compound 106, 2-(benzotriazol-1-yl)-N-[(3,5-difluorophenyl)methyl]-N-[4-(4H-1,2,4-triazol-3-yl)phenyl]acetamide] | 940
34 | N#Cc1ccc(N(Cc2cc(F)cc(F)c2)C(=O)Cn2nnc3ccccc32)cc1 [Compound 102, 2-(benzotriazol-1-yl)-N-(4-cyanophenyl)-N-[(3,5-difluorophenyl)methyl]acetamide] | 4700
35 | O=C(Cn1nnc2ccccc21)N(Cc1cc(F)cc(F)c1)c1ccc(C2CNC2)cc1 [Compound 118, N-[4-(azetidin-3-yl)phenyl]-2-(benzotriazol-1-yl)-N-[(3,5-difluorophenyl)methyl]acetamide] | 78
36 | COc1cc(F)cc(CN(C(=O)Cn2nnc3ccccc32)c2ccc(-c3c[nH]cn3)cc2)c1 [Compound 111, 2-(benzotriazol-1-yl)-N-[(3-fluoro-5-methoxy-phenyl)methyl]-N-[4-(1H-imidazol-4-yl)phenyl]acetamide] | 69
37 | Cc1cc(Cl)cc(CN(C(=O)Cn2nnc3ccccc32)c2ccc(-c3cccnc3)cc2)c1 [Compound 33, 2-(Benzotriazol-1-yl)-N-[(3-chloro-5-methyl-phenyl)methyl]-N-[4-(3-pyridyl)phenyl]acetamide] | 312 ± 73
